pEC50: −log10 of the molar value. Calls of active or inactive are those of the source. No cut-off for these calls is given here. Some results are limits rather than exact numbers.

For series [1], the system named is Human alphaherpesvirus 3. The experiment in a line: Antiviral activity against thymidine kinase deficient Varicella-Zoster virus 07-1 infected in human HEL cells assessed as reduction in plaque formation after 5 days. The class given is functional, organism-based. The conditions noted are these: Human alphaherpesvirus 3, 07-1, HEL, 120 h.
Series [2] is described as follows: Cytostatic activity against human HEL cells after 3 days by coulter counter method. The class given is ADME, cell-based.
Series [3] concerns Human betaherpesvirus 5. Briefly: Antiviral activity against HCMV AD169 infected in human HEL cells assessed as reduction in virus-induced cytopathic effect after 7 days. The class given is functional, organism-based. On the technique in general: Cytopathic effects are the visible damage that an infection or toxin causes in cultured cells.
Series [4] concerns Human betaherpesvirus 5. The experiment in a line: Antiviral activity against HCMV Davis infected in human HEL cells assessed as reduction in virus-induced cytopathic effect after 7 days. The class given is functional, organism-based.
The subject of series [5] is Human alphaherpesvirus 3. The experiment in a line: Antiviral activity against thymidine kinase expressing Varicella-Zoster virus Oka infected in human HEL cells assessed as reduction in plaque formation after 5 days. The format is functional, organism-based. To be noted: Human alphaherpesvirus 3, strain Oka vaccine, 120 h.

For orientation: pEC50 means the negative decadic logarithm of the EC50, by convention in mol/L. The CC50 is the concentration giving 50% cytotoxicity. The low end stands for harm at low concentration, the high end for better tolerance by the cells. In the case of `CC(=O)C1=C(C)N(Cc2cn(Cc3ccccc3)nn2)C(=O)NC1c1ccc(OCc2cn(Cc3ccccc3)nn2)cc1` (stereo unspecified), the pEC50 in the series on Human alphaherpesvirus 3 [1] was 4.97; in the series with Human alphaherpesvirus 3 [5], 4.95. Further, in series [2], the CC50 at 72 h is > 100 µM. Also, the outcome in the series with Human betaherpesvirus 5 [3] and in the series with Human betaherpesvirus 5 [4] was inactive.
For `CC(=O)C1=C(C)N(Cc2cn(Cc3ccc([N+](=O)[O-])cc3)nn2)C(=O)N(Cc2cn(Cc3ccc([N+](=O)[O-])cc3)nn2)C1c1ccccc1` (stereo unspecified), the figures for the pEC50 in the series on Human alphaherpesvirus 3 [1] and in the series on Human alphaherpesvirus 3 [5] were 5.11 and 5.44, respectively. Also, the CC50 at 72 h in series [2] is > 100 µM. For the same compound, the result with Human betaherpesvirus 5 [3] and in the series with Human betaherpesvirus 5 [4] was inactive.
Take `COc1ccc(OC)c(C2C(C(C)=O)=C(C)N(Cc3cn(Cc4ccccc4)nn3)C(=O)N2Cc2cn(Cc3ccccc3)nn2)c1` (stereo unspecified): the pEC50 was 5.05 in the series on Human alphaherpesvirus 3 [1] and 5.01 in the series with Human alphaherpesvirus 3 [5]. Also, the CC50 at 72 h in series [2] was > 100 µM. The result in the series on Human betaherpesvirus 5 [3] and in the series on Human betaherpesvirus 5 [4] was inactive.
In the case of `CC(=O)C1=C(C)N(Cc2cn(Cc3ccccc3)nn2)C(=O)N(Cc2cn(Cc3ccccc3)nn2)C1c1ccccc1` (stereo unspecified), the figures for the pEC50 in the series on Human alphaherpesvirus 3 [1] and in the series on Human alphaherpesvirus 3 [5] were 5.22 and 5.08, respectively. It took 7.02 µM to reach half-maximal cytotoxicity in series [2] (CC50 at 72 h). Besides, the result with Human betaherpesvirus 5 [3] and in the series with Human betaherpesvirus 5 [4] was inactive.
Take `Nc1nc2c(ncn2COCCO)c(=O)[nH]1` [ACYCLOVIR]: the pEC50 is 3.88 in the series with Human alphaherpesvirus 3 [1] and 5.63 in the series on Human alphaherpesvirus 3 [5]. Besides, in series [2], the CC50 at 72 h is > 440 µM.
As to `O=c1[nH]c(=O)n([C@H]2C[C@H](O)[C@@H](CO)O2)cc1/C=C/Br` [BRIVUDINE], the values for the pEC50 with Human alphaherpesvirus 3 [1] and in the series with Human alphaherpesvirus 3 [5] were 3.98 and 7.60, respectively. For the same compound, the CC50 at 72 h in series [2] was > 300 µM.
With `COc1ccc(OC)c(C2NC(=O)N(Cc3cn(Cc4ccc([N+](=O)[O-])cc4)nn3)C(C)=C2C(C)=O)c1` (stereo unspecified), the figures for the pEC50 in the series on Human alphaherpesvirus 3 [1] and in the series on Human alphaherpesvirus 3 [5] were 4.32 and 4.35, respectively. The result with Human betaherpesvirus 5 [3] and in the series with Human betaherpesvirus 5 [4] was inactive.
Turning to `CC(=O)C1=C(C)N(Cc2cn(Cc3ccccc3)nn2)C(=O)N(Cc2cn(Cc3ccccc3)nn2)C1c1ccc(N(C)C)cc1` (stereo unspecified), the pEC50 in the series with Human alphaherpesvirus 3 [1] was 4.77; in the series on Human alphaherpesvirus 3 [5] it was 4.64. Moreover, the result in the series with Human betaherpesvirus 5 [3] and in the series on Human betaherpesvirus 5 [4] was inactive.
Regarding `CC(=O)C1=C(C)N(Cc2cn(Cc3ccc([N+](=O)[O-])cc3)nn2)C(=O)NC1c1ccccc1` (stereo unspecified), the values for the pEC50 with Human alphaherpesvirus 3 [1] and in the series with Human alphaherpesvirus 3 [5] were 4.37 and 4.31, respectively. The result in the series on Human betaherpesvirus 5 [3] and in the series on Human betaherpesvirus 5 [4] was inactive.
`COc1ccc(OC)c(C2NC(=O)N(Cc3cn(Cc4ccccc4)nn3)C(C)=C2C(C)=O)c1` (stereo unspecified): the pEC50 in the series with Human alphaherpesvirus 3 [1] is 4.30; with Human alphaherpesvirus 3 [5] it was 4.31. Moreover, the outcome with Human betaherpesvirus 5 [3] and in the series with Human betaherpesvirus 5 [4] was inactive.
Take `CC(=O)C1=C(C)N(Cc2cn(Cc3ccc([N+](=O)[O-])cc3)nn2)C(=O)N(Cc2cn(Cc3ccc([N+](=O)[O-])cc3)nn2)C1c1ccc(OCc2cn(Cc3ccc([N+](=O)[O-])cc3)nn2)cc1` (stereo unspecified): the pEC50 with Human alphaherpesvirus 3 [1] is < 4.70; in the series on Human alphaherpesvirus 3 [5], 4.16. For the same compound, the result in the series on Human betaherpesvirus 5 [3] and with Human betaherpesvirus 5 [4] was inactive.

For the origin of these results see ChEMBL document CHEMBL4152322, “Dihydropyrimidinone/1,2,3-triazole hybrid molecules: Synthesis and anti-varicella-zoster virus (VZV) evaluation” (Eur J Med Chem, 2018).
